Test results reported in patent publication US20180099937A1, “NOVEL ARYL-CYANOGUANIDINE COMPOUNDS” (Bayer Pharma Aktiengesellschaft, priority 2015, published 2018).
pIC50: −log10 of the molar value.

Legend:
SMYD2 [1] = target: T1, SMYD2 (Homo sapiens, UniProt Q9NRG4); experiment: Scintillation Proximity Assay (SPA) for detection of SMYD2 enzymatic inhibition; assay type: biochemical; design: The SMYD2 full length enzyme was produced in-house by expression (with an N-terminal 6× His tag) in E. coli; 6xHis (N); made in house; host or cells: E. coli; conditions: SMYD2 full length enzyme, p53 Peptide substrate 1.0 μM, 3H-SAM 60 nM; read-out: IC50 [mol/l] (SPA Assay)
Method in brief: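 Full-length N-His SMYD2 from E. coli (typically 3 nM) was preincubated with compounds (0.1 nM–20 μM) for 15 min, then reacted 30 min at 22° C with 60 nM 3H-SAM and 1.0 μM biotinylated p53 peptide in Tris pH 9.0. Streptavidin SPA beads read methylation, and IC50 came from a 4-parameter fit.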

SMYD2 [2] = target: T1, SMYD2; experiment: In Cell Western (ICW) cell-based assay for detection of SMYD2 methylation activity; design: expressed in transfected cells; host or cells: KYSE-150 (human esophageal carcinoma, DSMZ ACC 375); conditions: SMYD2 overexpressing KYSE-150 cells, 72 h treatment, p53K370me1 signal normalized to DRAQ5; read-out: IC50 [mol/l] (ICW assay)
From the text: 1.2 Cell-Based Assay for Detection of SMYD2 methylation Activity
For the detection of SMYD2 cellular methylation activity an In Cell Western (ICW) assay was established. This assay allows rapid processing of multiple samples for SMYD2 methylation derived immunofluorescence signals, with normalization to cell number via the use of the nucleic acid dye DRAQS. KYSE-150 cells (human esophageal carcinoma cell line; DSMZ-German Collection of Microorganisms and Cell Cultures; No: ACC 375) have been stably transfected with a construct expressing wild-type SMYD2 (NCBI Reference Sequence: NP_064582.2). To detect SMYD2-mediated methylation signals in cells, a customized antibody directed against mono-methylated lysine 370 on protein p53 (p53K370me1) was used. The polyclonal antibody was generated (Eurogentec) against a p53 peptide containing the mono-methylated K370 epitope as described elsewhere (Huang et al., Nature, 2006, 444(7119):629-32).
For conducting the ICW assay 5000 SMYD2 overexpressing KYSE-150 cells/well were seeded in 96-well plates (SIGMA) and cultivated for 24 h. As a control for maximal inhibition of ectopic methylation activity, non-transfected KYSE-150 cells were used. Cells were grown in 49% RPMI 1640 with 49% Ham's F12 media supplemented with 2% heat inactivated fetal calf serum (FCS). For determination of SMYD2 inhibitory activity, cells were treated for 72 h in the presence of compounds or with DMSO. Cells were treated with compounds to be tested at a final concentration range varying from 3.9×10^−8 to 5×10^−6 M. Media was removed and 3.7% (w/v) formaldehyde in PBS was added for 20 min. After two washes with phosphate buffered saline (PBS), 0.25% (v/v) Triton X100 in PBS was added for 15 minutes of permeabilization. After one washing step with PBS, cells were blocked for 1 h with 5% (w/v) non-fat dry milk in PBS. Fixed cells were exposed to primary […] antibody in 5% non-fat dry milk in PBS for 24 h. One row of cells on each plate was not exposed to p53K370me1 antibody and was reserved for background control measurements. The wells were washed three times with PBS, then secondary IR800 conjugated antibody (LI-COR) and DNA-intercalating dye, 5 μM DRAQ5 (LI-COR) were added for 3 h. After 5 washes with PBS, the fluorescence in each well was measured on an Odyssey (LI-COR) scanner at 800 nm (p53K370me1 signal; 764 nm excitation) and 700 nm (DRAQS signal; 683 nm excitation). Fluorescence intensity was quantified and normalized to background and DRAQ5 signals. IC50 values were calculated by fitting the normalized inhibition data to a 4-parameter logistic equation (Minimum, Maximum, IC50, Hill; Y=Max+(Min−Max)/(1+(X/IC50)Hill)) for each tested compound. For IC50 determination C0 (=no inhibition) was defined as the signal measured for DMSO treated controls. Ci (maximal inhibition) was defined as the signal measured for non SMYD2 overexpressing KYSE150 cells.

T1 sequence (Q9NRG4 whole entry): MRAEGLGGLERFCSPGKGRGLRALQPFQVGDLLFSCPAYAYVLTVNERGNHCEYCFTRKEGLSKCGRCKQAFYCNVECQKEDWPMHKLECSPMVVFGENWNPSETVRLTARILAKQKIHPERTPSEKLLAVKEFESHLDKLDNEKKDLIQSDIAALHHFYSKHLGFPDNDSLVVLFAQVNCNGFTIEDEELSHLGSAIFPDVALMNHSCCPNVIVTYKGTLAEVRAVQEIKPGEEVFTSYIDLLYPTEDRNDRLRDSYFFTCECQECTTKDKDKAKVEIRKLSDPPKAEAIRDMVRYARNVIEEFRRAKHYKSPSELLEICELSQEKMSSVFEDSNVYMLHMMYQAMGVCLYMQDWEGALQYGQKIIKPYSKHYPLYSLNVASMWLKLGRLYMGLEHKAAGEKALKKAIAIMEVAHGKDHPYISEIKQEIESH

SMILES | pIC50 (SMYD2 [1]) | pIC50 (SMYD2 [2])
CCN(C(=O)[C@H]1CCCN1)C1CN(/C(=N\C#N)Nc2ccc(F)c(OC(F)(F)F)c2)N=C1c1ccc(Cl)c(Cl)c1 (single isomer, unassigned) [Example 22.1, N-[1-{N′-Cyano-N-[4-fluoro-3-(trifluoromethoxy)phenyl]carbamimidoyl}-3-(3,4-dichlorophenyl)-4,5-dihydro-1H-pyrazol-4-yl]-N-ethyl-D-prolinamide] | 7.52 | 7.02
CCN(C(=O)[C@H]1CCN1)C1CN(/C(=N\C#N)Nc2cccc(OC(F)F)c2)N=C1c1ccc(Cl)c(C)c1 (single isomer, unassigned) [Example 36.1] | 7.98 | 7.83
CCN(C(=O)[C@H]1C[C@@H](F)CN1)C1CN(/C(=N\C#N)Nc2cccc(OC(F)F)c2)N=C1c1ccc(Cl)c(C)c1 (single isomer, unassigned) [Example 38.1] | 7.52 | 8.59
